Source: patent US8139339B2, “Modulation of neuromuscular functions with ultrashort electrical pulses” (Old Dominion University Research Foundation, priority 2007, dated 2012)
Read-outs that look alike come from different tables or passages of the source.

Tests used:
hippocampal CA1 neurons = conditions: cited from earlier work
liver cells = conditions: oxidative stress-activated NSCCs; cited from earlier work
[1] = system: nsPEF-opened conductance pores; assay: whole-cell patch clamp of membrane conductance/resistance after nsPEF exposure; format: cell-based; conditions: for condition of nsPEF-exposed cells: added prior to exposure to 1 or 5 pulses
Excerpt: Patch clamp recording: Cells on a cover slip were transferred into a glass-bottomed chamber (Warner Instruments, Hamden, Conn.) mounted on a motorized stage (Prior Scientific Inc., Rockland, Mass.) of an IX71 FluoView™ 300 confocal laser scanning microscope. Recording pipettes were pulled from 1B150F-4 glass (World Precision Instruments, Sarasota, Fla.) to a tip resistance of 1.5-3 MOhm and moved into a position with a model 6500 hydraulic micromanipulator (Siskiyou, Grants Pass, Oreg.). Electrophysiology data were acquired using a Multiclamp 700B amplifier, Digidata 1322A A-D converter, and pCLAMP 10 software (Molecular Devices, Foster City, Calif.). The analog signal was low-pass filtered at 2 or 5 kHz, and digitized at “oversampling” rates of 10 to 50 kHz. The series resistance was not compensated. Typical values of the seal and access resistance were 4-15 GOhm and 4-10 MOhm, respectively, except for a solution pair HEPES/Cl. […] The data from these experiments were analyzed differently (see below).
As shown in the inventors preliminary experiments, nsPEF exposure could be damaging to the gigaohmic seal between the cell membrane and the glass pipette, thereby effectively destroying the patch-clamp recording configuration. […] The exposure of intact (rather than already “patched”) cells effectively removed any concerns about possible artifacts caused by the presence of the glass pipette during the exposure.
Once the whole-cell configuration was formed, the membrane resistance and capacitance (Rm and Cm) were measured using the Membrane Test utility of pClamp10 software. The holding level was set at −70 or −60 mV; 10- or 20-mV test pulses were applied at 30- to 100-Hz rates and averaged on-line (n=6-12). The membrane potential (MP) was measured by switching briefly from voltage to current clamp mode at I=0.
After Cm compensation, the holding membrane potential was set to −70 mV. In most experiments, the I-V relationship was obtained by applying voltage ramps, typically from −100 to +100 mV within 20-40 ms, and preceded by a brief step to −100 mV. Passive Gm was determined as the slope of the I-V curve by a best fit linear approximation through a region that contained no visible voltage-gated currents, usually from −80 to −50 mV. As one would expect, these Gm values correlated very closely with the inverse of Rm values measured using the Membrane Test. Erev was determined in a usual manner, as an intercept of the best fit line with abscissa.
Exposure to nsPEF and local E-field modeling: A Blumlein line pulse generator (Kolb, J. F., S. Kono, and K. H. Schoenbach. 2006. Nanosecond pulsed electric field generators for the study of subcellular effects. Bioelectromagnetics 27:172-187) produced nearly rectangular 60-ns pulses that were delivered to the selected cell by a pair of tungsten electrodes (0.125 mm electrode diameter, 0.31 mm gap between the electrodes). With a help of a micromanipulator, the electrodes were positioned 5-10 μm above the surface of the cover slip on the sides of the selected cell; the cell was in the middle of the gap between the electrodes, at a distance of about 50-100 μm from their tips.
To check if activation of endogenous NSCCs was responsible (at least in part) for observed nsPEF effects, an attempt was made by the inventors to modify these effects with ruthenium red and with lanthanide ions. It should be noted, however, that these substances are not truly specific and can affects various other channels and intracellular processes.
Ruthenium red was added to the bath solution of the K/Na pair (see Table 1) at 10, 50, or 200 μM prior to exposure to 1 or 5 pulses, and the whole-cell currents were recorded after the exposure in the usual manner.

Compound | swelling and other deleterious effects of oxygen-glucose deprivation (hippocampal CA1 neurons; 100 μM) | number of necrotic cells (liver cells) | protective effect against nsPEF permeabilization ([1]; 0.2 mM, initial trials) | swelling and other deleterious effects of oxygen-glucose deprivation (hippocampal CA1 neurons; 1 μM) | effect on membrane conductance increase by nsPEF ([1]; 10 μM in bath of K/Na pair, added prior to exposure) | effect on control (sham-exposed) cells ([1]; 50 μM in bath of K/Na pair) | condition of nsPEF-exposed cells ([1]; 50 μM in bath of K/Na pair) | effect on control (sham-exposed) cells ([1]; 200 μM in bath of K/Na pair) | condition of nsPEF-exposed cells ([1]; 200 μM in bath of K/Na pair)
[Cl][Gd]([Cl])[Cl] [Gd^3+, GdCl3] | reduced swelling | sharply decreased | no protection | – | – | – | – | – | –
[Cl][La]([Cl])[Cl] [La^3+, LaCl3] | reduced swelling | – | – | – | – | – | – | – | –
N.N.N.N.N.N.N.N.N.N.N.N.N.N.[Cl-].[Cl-].[Cl-].[Cl-].[Cl-].[Cl-].[O-2].[O-2].[Ru+3].[Ru+3].[Ru+4] [ruthenium red] | – | – | – | reduced swelling | neither enhanced nor inhibited | no apparent effect | worsened the condition of nsPEF-exposed cells | no apparent effect | worsened the condition of nsPEF-exposed cells
